Laboratory results: patent US12673975B2, “Cyclic peptide, cell scaffold material, cell separating material, and medium” (FUJIFILM Corporation, priority 2019, dated 2026)
Where two headings read alike, the source gives them in different places. Starred links: 1 amine or outer side, 2 acyl side, 3 side chain; linkers in the order of their positions; H or OH if unused. Positions of bridges follow the written chain, without caps; N, C: chain ends. Non-standard residues stand in square brackets, D forms with d. Residues, ends and D or L forms follow the SMILES beside them. hCys = N[C@@H](CCS)C(=O)O; Dab = NCC[C@H](N)C(=O)O; X2 = O=C(C[*:1])[*:2]

How the values were obtained:
[1] = Evaluation of molecule stability (alkali treatment, residual rate by LC/MS); assay type: physicochemical; conditions: for Performance evaluation: Stability (residual rate of cyclic peptide after alkali treatment): 500 μM peptide aqueous solution plus equivalent of 1 M sodium hydroxide, 15° C., 3 hours, LC/MS peak area; for Stability (molecule stability, residual rate of the cyclic peptide rank): alkali treatment, residual rate by LC/MS
How it was run: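 500 μM aqueous cyclic peptide mixed with an equal volume of 1 M NaOH and held 3 h at 15 °C. Residual rate is total LC/MS peak area after treatment relative to untreated (100%), using a C18 column, pH 3 ammonium formate/acetonitrile gradient, 45 °C, ESI±.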

human integrin αvβ5 = human integrin αvβ5 (Homo sapiens, UniProt P06756+P18084); experiment: Evaluation of integrin binding property (surface plasmon resonance, Biacore 3000, immobilized cyclic peptide)
How it was run: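 SPR with cyclic peptide amine-coupled via EDC/NHS to a CM5 chip, blank channel as reference. Integrin αvβ5 at 30, 100, 300 and 1,000 nM injected 10 min at 25 °C in HEPES buffer pH 7.4 with 5 mM MgCl2, 30 min buffer flow, EDTA regeneration; Kd from reference-subtracted signals, graded by category.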

[2] = SPR, 25° C., HEPES buffer with 5 mM magnesium chloride, integrin 30-1,000 nM, read-out: Performance evaluation: Binding activity (dissociation constant between the cyclic peptide and human integrin αvβ5)
[3] = surface plasmon resonance, immobilized cyclic peptide, human integrin αvβ5, read-out: Binding activity (integrin binding property, dissociation constant rank)

Sequence of human integrin αvβ5 (P06756 31-1048): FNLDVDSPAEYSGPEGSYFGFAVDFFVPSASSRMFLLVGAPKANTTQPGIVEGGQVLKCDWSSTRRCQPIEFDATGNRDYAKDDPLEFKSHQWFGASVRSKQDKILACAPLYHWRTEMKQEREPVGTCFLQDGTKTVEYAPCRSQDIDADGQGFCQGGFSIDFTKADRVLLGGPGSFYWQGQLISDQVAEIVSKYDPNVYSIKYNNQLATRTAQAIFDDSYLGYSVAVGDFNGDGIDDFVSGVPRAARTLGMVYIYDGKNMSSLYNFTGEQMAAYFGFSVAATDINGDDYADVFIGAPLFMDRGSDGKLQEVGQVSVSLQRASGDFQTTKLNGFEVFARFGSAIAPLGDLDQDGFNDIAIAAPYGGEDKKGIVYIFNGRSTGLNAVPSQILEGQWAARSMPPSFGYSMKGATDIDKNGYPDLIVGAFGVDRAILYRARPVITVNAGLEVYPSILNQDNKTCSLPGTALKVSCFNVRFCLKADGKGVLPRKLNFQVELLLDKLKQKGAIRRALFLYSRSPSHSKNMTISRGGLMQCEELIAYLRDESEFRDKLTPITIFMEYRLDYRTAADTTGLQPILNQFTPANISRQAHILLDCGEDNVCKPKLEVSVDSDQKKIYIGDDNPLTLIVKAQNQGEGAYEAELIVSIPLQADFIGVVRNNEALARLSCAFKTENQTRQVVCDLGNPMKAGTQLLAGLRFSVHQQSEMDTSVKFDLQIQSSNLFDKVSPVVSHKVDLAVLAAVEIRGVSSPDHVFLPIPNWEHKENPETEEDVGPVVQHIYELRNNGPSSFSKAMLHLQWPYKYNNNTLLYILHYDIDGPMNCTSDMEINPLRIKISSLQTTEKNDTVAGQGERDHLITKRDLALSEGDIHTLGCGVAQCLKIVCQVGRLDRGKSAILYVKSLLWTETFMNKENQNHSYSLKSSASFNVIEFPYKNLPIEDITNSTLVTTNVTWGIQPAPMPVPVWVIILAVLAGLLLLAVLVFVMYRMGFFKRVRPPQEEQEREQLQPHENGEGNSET
Sequence of human integrin αvβ5 (P18084 24-799): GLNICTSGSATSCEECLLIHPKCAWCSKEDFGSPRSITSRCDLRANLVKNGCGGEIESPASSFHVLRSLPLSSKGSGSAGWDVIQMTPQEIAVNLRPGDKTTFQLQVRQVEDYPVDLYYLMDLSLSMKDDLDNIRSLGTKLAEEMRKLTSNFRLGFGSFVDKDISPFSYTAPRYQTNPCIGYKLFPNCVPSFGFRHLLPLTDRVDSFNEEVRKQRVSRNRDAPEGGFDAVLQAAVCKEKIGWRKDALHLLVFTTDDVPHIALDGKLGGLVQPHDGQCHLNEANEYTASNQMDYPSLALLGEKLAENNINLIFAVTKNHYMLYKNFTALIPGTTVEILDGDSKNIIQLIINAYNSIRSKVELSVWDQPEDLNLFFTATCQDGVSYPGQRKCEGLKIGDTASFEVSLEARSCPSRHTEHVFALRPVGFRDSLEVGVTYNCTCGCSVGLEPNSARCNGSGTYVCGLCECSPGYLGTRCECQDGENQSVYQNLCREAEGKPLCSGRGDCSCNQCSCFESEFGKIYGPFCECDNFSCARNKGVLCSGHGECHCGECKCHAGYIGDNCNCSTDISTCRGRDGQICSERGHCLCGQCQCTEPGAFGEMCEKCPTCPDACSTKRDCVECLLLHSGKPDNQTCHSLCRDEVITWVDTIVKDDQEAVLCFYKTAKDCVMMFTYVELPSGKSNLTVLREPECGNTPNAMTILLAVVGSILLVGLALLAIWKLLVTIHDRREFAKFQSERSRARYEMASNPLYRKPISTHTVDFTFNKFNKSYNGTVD

Structure (SMILES) | Kd (human integrin αvβ5; [2]) | Kd (human integrin αvβ5; [3]) | Performance evaluation: Stability (residual rate of cyclic peptide after alkali treatment) [1] | Stability (molecule stability, residual rate of the cyclic peptide rank) [1]
CC[C@H](C)[C@@H]1NC(=O)[C@@H](NC(=O)[C@H](C)N)CCSCC(=O)NCC[C@@H](C(=O)N[C@@H](C)C(=O)O)NC(=O)[C@H](C)NC(=O)[C@H](Cc2ccccc2)NC(=O)[C@H](CO)NC(=O)[C@H](CC(=O)O)NC(=O)CNC(=O)[C@H](CCCNC(=N)N)NC(=O)[C@@H]2CCCN2C1=O [Cyclic peptide 126, A-(Hcy)-IPRGDSFA(Dab(acetyl))A] (H-A[hCys]IPRGDSFA[Dab]A-OH; linker 2-11 via X2) | – | < 50 nM | – | A (The residual rate of the cyclic peptide is 70% or more.)
CC[C@H](C)[C@@H]1NC(=O)[C@@H](NC(=O)[C@H](C)NC(=O)[C@H](CCCCN)NC(=O)[C@H](CCCCN)NC(=O)[C@@H](N)CCCCN)CCSCC(=O)NCC[C@@H](C(=O)N[C@@H](C)C(=O)O)NC(=O)[C@H](C)NC(=O)[C@H](Cc2ccccc2)NC(=O)[C@H](C)NC(=O)[C@H](CC(=O)O)NC(=O)CNC(=O)[C@H](CCCNC(=N)N)NC(=O)[C@@H]2CCCN2C1=O [Cyclic peptide 90, KKKA-(Hcy)-IPRGDAFA(Dab(acetyl))A] (H-KKKA[hCys]IPRGDAFA[Dab]A-OH; linker 5-14 via X2) | < 50 nM | – | A (The residual rate of the cyclic peptide is 70% or more.) | –
CC(C)[C@@H]1NC(=O)[C@@H](NC(=O)[C@H](C)NC(=O)[C@H](CCCCN)NC(=O)[C@H](CCCCN)NC(=O)[C@@H](N)CCCCN)CCSCC(=O)NCC[C@@H](C(=O)N[C@@H](C)C(=O)O)NC(=O)[C@H](CCCNC(=N)N)NC(=O)[C@H](Cc2ccccc2)NC(=O)[C@H]([C@@H](C)O)NC(=O)[C@H](CC(=O)O)NC(=O)CNC(=O)[C@H](CCCNC(=N)N)NC(=O)[C@@H]2CCCN2C1=O [Cyclic peptide 74, KKKA-(Hcy)-VPRGDTFR(Dab(acetyl))A] (H-KKKA[hCys]VPRGDTFR[Dab]A-OH; linker 5-14 via X2) | < 50 nM | – | A (The residual rate of the cyclic peptide is 70% or more.) | –

Second part, led by results:

Kd (human integrin αvβ5; [2]) | Kd (human integrin αvβ5; [3]) | Structure (SMILES) | Performance evaluation: Stability (residual rate of cyclic peptide after alkali treatment) [1] | Stability (molecule stability, residual rate of the cyclic peptide rank) [1]
< 50 nM | – | CC(C)[C@@H]1NC(=O)[C@@H](NC(=O)[C@H](CCCCN)NC(=O)[C@H](CCCCN)NC(=O)[C@@H](N)CCCCN)CCSCC(=O)NCC[C@@H](C(=O)O)NC(=O)[C@H](Cc2ccccc2)NC(=O)[C@H]([C@@H](C)O)NC(=O)[C@H](CC(=O)O)NC(=O)CNC(=O)[C@H](CCCNC(=N)N)NC(=O)[C@@H]2CCCN2C1=O [Cyclic peptide 64, KKK-(Hcy)-VPRGDTF(Dab(acetyl))] (H-KKK[hCys]VPRGDTF[Dab]-OH; linker 4-12 via X2) | A (The residual rate of the cyclic peptide is 70% or more.) | –
– | < 50 nM | CC(C)[C@@H]1NC(=O)[C@@H](NC(=O)[C@H](CCCCN)NC(=O)[C@H](CCCCN)NC(=O)[C@@H](N)CCCCN)CCSCC(=O)NCC[C@@H](C(=O)O)NC(=O)CNC(=O)[C@H](Cc2ccccc2)NC(=O)[C@H]([C@@H](C)O)NC(=O)[C@H](CC(=O)O)NC(=O)CNC(=O)[C@H](CCCNC(=N)N)NC(=O)[C@@H]2CCCN2C1=O [Cyclic peptide 152, KKK-(Hcy)-VPRGDTFG(Dab(acetyl))] (H-KKK[hCys]VPRGDTFG[Dab]-OH; linker 4-13 via X2) | – | A (The residual rate of the cyclic peptide is 70% or more.)
– | < 50 nM | CC(C)[C@@H]1NC(=O)[C@H](CC(=O)O)NC(=O)CNC(=O)[C@H](CCCNC(=N)N)NC(=O)[C@@H]2CCCN2C(=O)[C@H](C(C)C)NC(=O)[C@@H](NC(=O)[C@H](CCCCN)NC(=O)[C@H](CCCCN)NC(=O)[C@@H](N)CCCCN)CCSCC(=O)NCC[C@@H](C(=O)O)NC(=O)[C@H](C)NC(=O)[C@H](Cc2ccccc2)NC1=O [Cyclic peptide 151, KKK-(Hcy)-VPRGDVFA(Dab(acetyl))] (H-KKK[hCys]VPRGDVFA[Dab]-OH; linker 4-13 via X2) | – | A (The residual rate of the cyclic peptide is 70% or more.)
